Data reported in article PMC12076163 (Chemical Science, 2025).

Biological target: hen egg-white lysozyme (Gallus gallus, UniProt P00698)
Experiment: 1H–[…] HMQC NMR of caged lysozyme with cage-tethered GlcNAc
Type: biochemical

Kd: 6 µM
Compound: CC(=O)N[C@H]1C(O)O[C@H](CO)[C@@H](O)[C@@H]1O (stereo partly shown) [GlcNAc, N-acetylglucosamine]
